# Source: US20110294741A1, “USE OF COMPOUNDS IN THE TREATMENT OF TAU-INDUCED CYTOTOXICITIES” (Bioalvo-Servicos, Investigacao e Desenvolvimento em …, priority 2008, published 2011)
# Test system: rats (Wister, male)
# Assay: In vivo toxicology: hepatotoxicity markers in the plasma
# Design: species or system rat
# Conditions: i.p. once a day 3.23 mg-100 g body mass, seven days
# Procedure: The toxicological studies were carried out with rats (Wister, male) injected i.p. once a day with 3.23 mg-100 g body mass during seven days.
# Liver is the major organ of toxicity. Blood samples were collected and the following hepatotoxicity markers were assayed in the plasma: • Alanine transaminase (ALT), • Aspartate transaminase (AST) • Alkaline phosphatase (ALP) • Total bilirubin (TBIL) • Gamma glutamyl transpeptidase (GGT)
# Increased levels of the liver enzymes ALT, AST, ALP and GGT in the plasma indicate lesions in liver. Increased RBL would be a sign of faulty bilirubin production/hemolysis and/or bilirubin metabolism (in liver).
compound,measurement,value
"N=C(N)NCCCC(NC(=O)C(N)Cc1ccc(O)cc1)C(N)=O [KTP-NH2, L-Tyr-L-Arg-NH2]",GGT in plasma,below the detection limit
same,"hepatotoxicity markers in plasma (AST, ALT, ALP, total bilirubin) versus control animals",no toxic effects were detected
